Source: US20130029961A1, “Substituted Heterocyclic Aza Compounds” (Gruenenthal GmbH, priority 2011, published 2013)

Target: T1, TRPV1 human (Homo sapiens, UniProt Q8NER1)
T1 construct: expressed in transfected cells; host or cells: CHO K1 cells
Assay: Functional FLIPR Ca2+ influx assay on vanilloid receptor 1 (VR1/TRPV1), capsaicin stimulus
Type: cell-based
Parameters: key to TRPV1 human (f) CAP, agonist (AG): AG denotes agonist
Details: for Ki: functional (f), vs capsaicin (CAP), Ki from IC50 by Cheng-Prusoff; for inhibition at 5 µM: read-out: TRPV1 human (f) CAP, inhibition (as a percentage) @ 5 μM; for TRPV1 human (f) CAP, agonist (AG): printed in the Ki column instead of a value

[1] = inhibition at 5 μM compound, capsaicin (CAP)

T1 sequence (Q8NER1 whole entry): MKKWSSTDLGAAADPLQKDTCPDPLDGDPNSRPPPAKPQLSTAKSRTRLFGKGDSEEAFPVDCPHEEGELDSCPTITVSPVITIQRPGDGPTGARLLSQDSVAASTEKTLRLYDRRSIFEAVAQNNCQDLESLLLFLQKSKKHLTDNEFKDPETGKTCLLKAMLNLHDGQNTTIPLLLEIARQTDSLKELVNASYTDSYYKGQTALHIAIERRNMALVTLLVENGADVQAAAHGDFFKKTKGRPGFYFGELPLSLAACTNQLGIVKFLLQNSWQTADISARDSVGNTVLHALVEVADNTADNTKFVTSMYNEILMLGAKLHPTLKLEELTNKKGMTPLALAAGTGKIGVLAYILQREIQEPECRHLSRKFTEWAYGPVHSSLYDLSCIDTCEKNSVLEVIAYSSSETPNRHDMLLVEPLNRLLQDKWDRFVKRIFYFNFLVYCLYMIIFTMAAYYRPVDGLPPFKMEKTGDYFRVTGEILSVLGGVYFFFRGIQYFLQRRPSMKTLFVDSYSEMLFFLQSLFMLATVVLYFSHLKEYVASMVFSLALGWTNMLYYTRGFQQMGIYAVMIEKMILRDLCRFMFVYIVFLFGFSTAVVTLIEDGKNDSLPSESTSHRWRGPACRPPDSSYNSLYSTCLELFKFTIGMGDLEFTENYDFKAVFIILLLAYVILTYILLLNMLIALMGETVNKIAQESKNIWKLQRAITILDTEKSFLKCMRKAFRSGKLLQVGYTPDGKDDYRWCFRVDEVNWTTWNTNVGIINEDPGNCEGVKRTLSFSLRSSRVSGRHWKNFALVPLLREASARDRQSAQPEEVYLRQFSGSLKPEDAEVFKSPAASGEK

Row | Ki [nM] | Structure (SMILES) | other results
1 | 91 | O=C(Cc1ccccn1)NCc1ccc(C(F)(F)F)nc1-c1cccc(Cl)c1 [compound 5] | –
2 | – | O=C(Cc1ccccn1)NCc1ccc(C(F)(F)F)nc1-c1ccc(F)c(Cl)c1 [compound 6] | TRPV1 human (f) CAP, inhibition (as a percentage) @ 5 μM [1]: 48% @ 5 μM
3 | – | Cc1cccc(-c2nc(C(F)(F)F)ccc2CNC(=O)Cc2ccccn2)c1 [compound 7] | inhibition at 5 µM [1]: 18%
4 | – | COc1cccc(-c2nc(C(F)(F)F)ccc2CNC(=O)Cc2ccccn2)c1 [compound 8] | inhibition at 5 µM [1]: 39%
5 | – | CCCCNc1nc(C(F)(F)F)ccc1CNC(=O)Cc1ccccn1 [compound 9] | inhibition at 5 µM [1]: 23%
6 | 73 | O=C(Cc1ccccn1)NCc1ccc(C(F)(F)F)nc1N1CCCC1 [compound 10] | –
7 | 7 | CC1CCN(c2nc(C(F)(F)F)ccc2CNC(=O)Cc2ccccn2)CC1 [compound 13] | –
8 | 45 | CC1CCN(c2nc(C(F)(F)F)ccc2CNC(=O)C(C)c2ccccn2)CC1 (stereo not drawn) [compound 14] | –
9 | 35 | CC1CCN(c2nc(C(F)(F)F)ccc2CNC(=O)Nc2ccccn2)CC1 [compound 19] | –
10 | – | O=C(Cc1ccccn1)NCc1ccc(C(F)(F)F)nc1N1CCOCC1 [compound 22] | inhibition at 5 µM [1]: 32%
11 | – | COCCOCc1nc(C(F)(F)F)ccc1CNC(=O)Cc1ccccn1 [compound 24] | inhibition at 5 µM [1]: 13%
12 | 6 | CC1CCN(c2nc(C(F)(F)F)ccc2CNC(=O)Cc2cccnc2)CC1 [compound 31] | –
13 | 10 | CC1CCN(c2nc(C(F)(F)F)ccc2CNC(=O)C(C)c2cccnc2)CC1 (stereo not drawn) [compound 32] | –
14 | – | CC1CCN(c2nc(C(F)(F)F)ccc2CNC(=O)Cc2ccncc2)CC1 [compound 38] | TRPV1 human (f) CAP, agonist (AG): AG
15 | 11 | CC1CCN(c2nc(C(F)(F)F)ccc2CNC(=O)Cc2ccncn2)CC1 [compound 39] | –
16 | 107 | CC1CCN(c2nc(C(F)(F)F)ccc2CNC(=O)Cc2cnccn2)CC1 [compound 40] | –
17 | – | CC1CCN(c2nc(C(F)(F)F)ccc2CNC(=O)Cc2ncccn2)CC1 [compound 41] | inhibition at 5 µM [1]: 39%
18 | 9 | CC1CCN(c2nc(C(F)(F)F)ccc2CNC(=O)Nc2ccnnc2)CC1 [compound 42] | –
19 | 38 | CC1CCN(c2nc(C(F)(F)F)ccc2CNC(=O)Cc2cncnc2)CC1 [compound 47] | –
20 | – | CC1CCN(c2nc(C(F)(F)F)ccc2CNC(=O)C(C)c2ccc(Cl)nc2)CC1 (stereo not drawn) [compound 49] | TRPV1 human (f) CAP, agonist (AG): AG

Row | Ki [nM] | Structure (SMILES) | other results
21 | 11 | CC1CCN(c2nc(C(F)(F)F)ccc2CNC(=O)Nc2ccc(CO)nc2)CC1 [compound 55] | –
22 | 6 | CC1CCN(c2nc(C(F)(F)F)ccc2CNC(=O)Nc2cnc(CCS(C)(=O)=O)c(F)c2)CC1 [compound 67] | –
23 | – | CC1CCN(c2nc(C(F)(F)F)ccc2CNC(=O)C(C)c2ccc(C(N)=O)nc2)CC1 (stereo not drawn) [compound 74] | TRPV1 human (f) CAP, agonist (AG): AG
24 | 57 | CC1CCN(c2nc(C(F)(F)F)ccc2CNC(=O)C(C)c2ccc(C(=O)Nc3ccccc3)nc2)CC1 (stereo not drawn) [compound 75] | –
25 | 77 | CC1CCN(c2nc(C(F)(F)F)ccc2CNC(=O)C(C)c2cnc(C(=O)Nc3ccccc3)nc2)CC1 (stereo not drawn) [compound 76] | –
26 | 80 | CCNc1nc(C(F)(F)F)ccc1CNC(=O)C(C)c1cnc(C(=O)Nc2ccc(F)cc2)nc1 (stereo not drawn) [compound 77] | –
27 | 42 | CC(C(=O)NCc1ccc(C(F)(F)F)nc1N1CCCC1)c1cnc(C(=O)Nc2ccc(F)cc2)nc1 (stereo not drawn) [compound 78] | –
28 | 11 | CC(C(=O)NCc1ccc(C(F)(F)F)nc1N1CCCCC1)c1cnc(C(=O)Nc2ccc(F)cc2)nc1 (stereo not drawn) [compound 79] | –
29 | 60 | CC(C(=O)NCc1ccc(C(F)(F)F)nc1N1CCOCC1)c1cnc(C(=O)Nc2ccc(F)cc2)nc1 (stereo not drawn) [compound 80] | –
30 | 5 | Cc1cccc(-c2nc(C(F)(F)F)ccc2CNC(=O)C(C)c2cnc(C(=O)Nc3ccc(F)cc3)nc2)c1 (stereo not drawn) [compound 81] | –
31 | 50 | CC1CCN(c2nc(C(F)(F)F)ccc2CNC(=O)C(C)c2ccc(N)c(Br)n2)CC1 (stereo not drawn) [compound 84] | –
32 | 2 | CC1CCN(c2nc(C(F)(F)F)ccc2CNC(=O)C(C)c2ccc(NCCO)nc2)CC1 (stereo not drawn) [compound 85] | –
33 | 1 | CC1CCN(c2nc(C(F)(F)F)ccc2CNC(=O)Nc2ccc(NCCO)nc2)CC1 [compound 86] | –
34 | 27 | COCCNc1ccc(C(C)C(=O)NCc2ccc(C(F)(F)F)nc2N2CCC(C)CC2)cn1 (stereo not drawn) [compound 87] | –
35 | 16 | COCCNc1ccc(NC(=O)NCc2ccc(C(F)(F)F)nc2N2CCC(C)CC2)cn1 [compound 88] | –
36 | 53 | CC1CCN(c2nc(C(F)(F)F)ccc2CNC(=O)C(C)c2ccc(N(C)CCO)nc2)CC1 (stereo not drawn) [compound 89] | –
37 | 19 | CC1CCN(c2nc(C(F)(F)F)ccc2CNC(=O)Nc2ccc(N(C)CCO)nc2)CC1 [compound 90] | –
38 | – | COCCN(C)c1ccc(NC(=O)NCc2ccc(C(F)(F)F)nc2N2CCC(C)CC2)cn1 [compound 91] | TRPV1 human (f) CAP, inhibition (as a percentage) @ 1 μM (inhibition at 1 μM compound, capsaicin (CAP)): 12% @ 1 μM
39 | – | CC(C(=O)NCc1ccc(C(F)(F)F)nc1N1CCOCC1)c1ccc(NS(C)(=O)=O)nc1 (stereo not drawn) [compound 95] | inhibition at 5 µM [1]: 34%
40 | 1 | CC1CCN(c2nc(C(F)(F)F)ccc2CNC(=O)C(C)c2cnc(NS(C)(=O)=O)c(F)c2)CC1 (stereo not drawn) [compound 96] | –

Row | Ki [nM] | Structure (SMILES) | other results
41 | 2 | COc1cc(C(C)C(=O)NCc2ccc(C(F)(F)F)nc2N2CCC(C)CC2)cnc1NS(C)(=O)=O (stereo not drawn) [compound 97] | –
42 | 63 | CC1CCN(c2nc(C(F)(F)F)ccc2CNC(=O)C(C)c2ccc(NC(=O)c3ccccc3)nc2)CC1 (stereo not drawn) [compound 98] | –
43 | 9 | CC1CCN(c2nc(C(F)(F)F)ccc2CNC(=O)C(C)c2ccc(NC(=O)c3ccc(Cl)cc3)nc2)CC1 (stereo not drawn) [compound 99] | –
44 | 9 | CC1CCN(c2nc(C(F)(F)F)ccc2CNC(=O)Nc2cnc(N(C)C)c(C(F)(F)F)c2)CC1 [compound 104] | –
45 | 27 | CC1CCN(c2nc(C(F)(F)F)ccc2CNC(=O)Nc2ccc(N3CCC3)nc2)CC1 [compound 105] | –
46 | 81 | COc1cc(NC(=O)NCc2ccc(C(F)(F)F)nc2N2CCC(C)CC2)cnc1N1CCC1 [compound 107] | –
47 | 12 | CC1CCN(c2nc(C(F)(F)F)ccc2CNC(=O)Nc2ccc(N3CC(O)C3)nc2)CC1 [compound 108] | –
48 | 12 | CC1CCN(c2nc(C(F)(F)F)ccc2CNC(=O)Nc2ccc(N3CCCC3)nc2)CC1 [compound 114] | –
49 | 78 | COc1cc(NC(=O)NCc2ccc(C(F)(F)F)nc2N2CCC(C)CC2)cnc1N1CCCC1 [compound 116] | –
50 | 9 | CC1CCN(c2nc(C(F)(F)F)ccc2CNC(=O)Nc2ccc(N3CC[C@H](O)C3)nc2)CC1 [compound 117] | –
51 | 10 | CC1CCN(c2nc(C(F)(F)F)ccc2CNC(=O)Nc2ccc(N3CC[C@@H](O)C3)nc2)CC1 [compound 118] | –
52 | 44 | COc1ccc(C(C)C(=O)NCc2ccc(C(F)(F)F)nc2N2CCC(C)CC2)cn1 (stereo not drawn) [compound 120] | –
53 | 11 | CC1CCN(c2nc(C(F)(F)F)ccc2CNC(=O)Nc2ccc(OCCO)nc2)CC1 [compound 123] | –
54 | 4 | COCCOc1ccc(NC(=O)NCc2ccc(C(F)(F)F)nc2N2CCC(C)CC2)cn1 [compound 124] | –
55 | 26 | CC1CCN(c2nc(C(F)(F)F)ccc2CNC(=O)Nc2cncc(CO)c2)CC1 [compound 126] | –
56 | 61 | CC1CCN(c2nc(C(F)(F)F)ccc2CNC(=O)Nc2ccc(CO)cn2)CC1 [compound 127] | –
57 | 69 | CC1CCN(c2nc(C(F)(F)F)ccc2CNC(=O)Nc2ccncc2CO)CC1 [compound 128] | –
58 | 39 | CC1CCN(c2nc(C(F)(F)F)ccc2CNC(=O)Nc2ccc(C(O)CO)nc2)CC1 (stereo not drawn) [compound 129] | –
59 | 15 | O=C(NCc1ccc(C(F)(F)F)nc1-c1cccc(F)c1)Nc1ccc(NCCO)nc1 [compound 130] | –
60 | 29 | O=C(NCc1ccc(C(F)(F)F)nc1-c1cncc(Cl)c1)Nc1ccc(NCCO)nc1 [compound 131] | –
